Measured values taken from the METLIN SMRT retention time set (Domingo-Almenara et al. 2019).

experiment: gradient 5% acetonitrile 3 min, to 50% in 2 min, to 85% in 15 min, held 3 min, 100 µL/min; settings: column: Zorbax Extend-C18 2.1 x 50 mm; eluents: water / acetonitrile, 0.1% formic acid
Outline: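 Using water and acetonitrile that each contained 0.1% formic acid, mixtures of ~100 pure standards were separated at 100 μL/min on a Zorbax Extend-C18 column (2.1 × 50 mm, 1.8 μm). The HPLC fed a quadrupole time-of-flight mass spectrometer working in positive and negative ionization mode, with dead and dwell volumes of 40 μL and 900 μL. Data were acquired over 3 months. Retention time was read from computationally picked adduct peaks after manual inspection of each.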

| Structure (SMILES) | RP-LC retention time [s] |
| --- | --- |
| O=C(NCCc1csc(C2CCCN(C(=O)C3CCCC3)C2)n1)C1CCC1 (stereo not drawn) | 718 |
| CCCCC(=O)Nc1nc(-c2ccc3c(c2)N(CC)C(=O)CO3)c(C)s1 | 982 |
| COc1ccc(-c2noc(Cn3ccn(-c4c(C)cccc4C)c(=O)c3=O)n2)cc1 | 870 |
| CCc1ccc2[nH]c3c(c(=O)c2c1)CN(CC(=O)Nc1cc(OC)cc(OC)c1)CC3 | 642 |
| O=C(NC1CCCC1)C1CCN(C(=O)N2CCOc3ccc(Cl)cc32)CC1 | 841 |
| O=C1NCN(c2ccccc2)C12CCN(CC1COc3ccccc3O1)CC2 (stereo not drawn) | 736 |
| O=C(c1ccc(-n2cnnn2)cc1)N1CCN(c2ccccn2)CC1 | 567 |
| O=C(CCc1ccc2[nH]ccc2c1)NCc1ccc(F)cc1 | 793 |
| CC(=O)N1c2ccc(S(=O)(=O)N3CCCC3)cc2CC1C(=O)NCCN1CCCCCC1 (stereo not drawn) | 630 |
| COc1ccc(CC(=O)N2CCN(c3nc4ccncc4n(C)c3=O)CC2)c(Cl)c1 | 645 |
| CN1C(=O)C2CCCCN2c2ccc(C(=O)N3CCN(c4cccc(Cl)c4)CC3)cc21 (stereo not drawn) | 1060 |
| CCOc1ccc(NC(=O)C2CCN(c3cncnc3N3CCOCC3)CC2)cc1 | 651 |
| O=C(NCc1ccco1)c1ccc2c(c1)N(C(=O)c1ccc(F)cc1)CC2 | 823 |
| COc1ccc(OC)c(Nc2c(-c3ccc(C)cc3)nc3cnccn23)c1 | 911 |
| CC(C)N1CCC(F)(c2nc(-c3ccccc3)no2)CC1 | 657 |
| CCNC(=O)C1CCN(S(=O)(=O)c2c(C)[nH]c(C)c2C(=O)N2CCCCC2)CC1 | 624 |
| O=C(NC1CCCCCCC1)C1CCN(S(=O)(=O)c2cc(-c3noc(C4CC4)n3)cs2)CC1 | 1100 |
| CCOC(=O)c1cnc2nc(C)ccc2c1Nc1cc(F)cc(F)c1 | 736 |
| CCOc1ccccc1-c1noc(CN2C(=O)COc3cc(C)ccc32)n1 | 1050 |
| CCOC(=O)C1C(=O)C=C(c2cccs2)CC1c1ccc(F)cc1 (stereo not drawn) | 1110 |

| Structure (SMILES) | RP-LC retention time [s] |
| --- | --- |
| O=C(Cc1ccc(F)cc1)NC1CCN(c2cc(-c3ccc(F)cc3)[nH]n2)C1 (stereo not drawn) | 720 |
| Cc1nc(C#Cc2cccnc2)cs1 | 747 |
| Cc1ccc(-n2nc(C)c3sc(N4CCCC(C(=O)NC5CCCc6ccccc65)C4)nc32)cc1 (stereo not drawn) | 1300 |
| COC(=O)c1cc(S(=O)(=O)N2CCCC2C(=O)Nc2nc(C)cs2)cn1C (stereo not drawn) | 791 |
| CCc1ccccc1NC(=O)N1CCCC1c1cc(C)on1 (stereo not drawn) | 774 |
| CCn1cc(-c2nc(CC(=O)NCc3ccc(C)o3)cs2)c2cccnc21 | 912 |
| Cc1ccc(NC(=O)CN2CCC(c3nc(-c4cccs4)no3)CC2)c(Cl)c1 | 777 |
| CCOC(=O)c1noc2nc(C)nc(N3CCN(c4ccc(Cl)cc4)CC3)c12 | 1190 |
| Cc1ccc(Cl)cc1NC(=O)C1CCCN1S(=O)(=O)c1cc2c(cc1C)NC(=O)CO2 (stereo not drawn) | 842 |
| COc1ccc(OC)c(NC(=O)N2CCN(CCn3c(C(F)(F)F)nc4cccnc43)CC2)c1 | 642 |
| Cc1ccc(C(=O)NC2(c3nc(C)no3)CCCCC2)cc1 | 886 |
| CC1C(=O)NCCN1C(=O)Cc1ccc2c(c1)OCO2 (stereo not drawn) | 600 |
| CCOC(=O)c1cccc(N2C=C(C#N)S(=O)(=O)c3cc(F)ccc32)c1 | 937 |
| COC(=O)c1ccc2c(=O)n(-c3ccc(C)c(F)c3)c(N3CCOCC3)nc2c1 | 975 |
| O=S(=O)(c1ccc(F)cc1Cl)N1CCCn2nc(-c3cccnc3)cc2C1 | 687 |
| O=C(NCc1ccccn1)C1CCc2sc(C(=O)N3CCCCC3)cc2C1 (stereo not drawn) | 506 |
| O=C(Nc1cccc(Cl)c1)N1CCC(n2cnnc2C2CC2)C1 (stereo not drawn) | 658 |
| COCCc1noc(-c2cnc3nc(C)ccc3c2Nc2cccc(C)c2)n1 | 728 |
| Cc1cccc(NC(=O)C2CN(C(=O)c3cc(C)on3)C2)n1 | 601 |
| O=C(NCCc1csc(C2CCN(C(=O)C3CCCO3)CC2)n1)C1CCC1 (stereo not drawn) | 626 |

| Structure (SMILES) | RP-LC retention time [s] |
| --- | --- |
| Cc1ccc(OCc2nc(C)c(C(=O)N3CCC(C(N)=O)CC3)s2)cc1 | 696 |
| Cn1cnc(S(=O)(=O)N2CCCCC2c2nc(-c3ccncc3)n[nH]2)c1 (stereo not drawn) | 646 |
| Cc1c(Cl)cccc1-n1ccnc(NC(=O)Nc2ccc3c(c2)OCO3)c1=O | 995 |
| CN(C)c1ccc2c(c1)CN(C(=O)c1ccsc1)CCO2 | 586 |
| CN1C(=O)C2CCCCN2c2ccc(C(=O)N3CCN(Cc4ccc5c(c4)OCO5)CC3)cc21 (stereo not drawn) | 638 |
| CCOC(=O)Cn1cc(-c2nc(-c3ccc(Br)cc3)no2)ccc1=O | 1050 |
| CC(NC(=O)C1CCN(C(=O)c2ncn3c2COC(c2ccc(F)cc2)C3)CC1)c1ccc(F)cc1 (stereo not drawn) | 790 |
| Cc1noc(-c2cccc(OC3CN(C(=O)c4ccco4)C3)c2)n1 | 789 |
| CCCc1noc(-c2cccnc2N2CCCN(Cc3cccc(F)c3)CC2)n1 | 722 |
| CCn1nc(CNC(=O)c2cnccn2)c2ccccc21 | 718 |
| CCCN(CC1CCOC1)S(=O)(=O)c1cccc(C(F)(F)F)c1 (stereo not drawn) | 1000 |
| Cc1cc(Cl)ccc1OCc1nc(-c2ccc3c(c2)nnn3CCC(=O)N2CCCCCC2)no1 | 1180 |
| CN(C)c1ncccc1NC(=O)c1cccc(C#N)c1 | 585 |
| CCCNc1nccn(C(C)C)c1=O | 544 |
| CCN(CC)C(=O)c1cnc2snc(C)c2c1N1CCC(C(=O)Nc2ccc(C(C)C)cc2)CC1 | 1040 |
| CCC1(O)CCOC2(CCN(Cc3ccncc3F)CC2)C1 (stereo not drawn) | 554 |
| Cc1[nH]c(-c2ccc(Cl)cc2)cc1C(=O)NC1CCCCC1 | 990 |
| O=C(Nc1ccccc1F)C1CCN(S(=O)(=O)c2cc(C(=O)N3CCOCC3)cs2)CC1 | 742 |

The next lines start with the values.

| RP-LC retention time [s] | Structure (SMILES) |
| --- | --- |
| 954 | Cc1ccccc1NC(=O)CN(C)S(=O)(=O)c1cc(C(=O)N2CCC(C)CC2)n(C)c1 |
| 871 | CCC(=O)N(CC(=O)N1CCc2sccc2C1COc1ccccc1OC)C1CC1 (stereo not drawn) |
| 685 | CCN(CC)C(=O)c1cc(=O)n(CC(=O)NC2CCCC2)c2ccccc12 |
| 892 | Cc1ccc(CNC(=O)c2nnc(-c3ccc(S(=O)(=O)N(C)C)cc3)o2)cc1 |
| 871 | C[C@H]1CN(S(=O)(=O)c2ccccc2)C[C@@H]1c1nc(-c2ccncc2)no1 |
| 662 | CN1CCn2cc(S(=O)(=O)Nc3cccc(C#N)c3)cc2C1=O |
| 975 | COc1ccc(-c2cc3c(=O)n(Cc4nc(-c5ccccc5OC)oc4C)ccn3n2)cc1 |
| 613 | O=C(CCc1nnc2ccc(NCc3ccccc3Cl)nn12)N1CCN(c2ccccn2)CC1 |
| 847 | COc1ccccc1OC(C)C(=O)N(Cc1ccc(C)o1)C1CCS(=O)(=O)C1 (stereo not drawn) |
| 894 | COc1ccccc1-c1cc(C(F)(F)F)n2ncc(C(=O)OCCN3CCCC3=O)c2n1 |
| 974 | COc1ccc(CNC(=O)c2cn(-c3cc(N4CCCC(C)C4)ncn3)cn2)cc1 (stereo not drawn) |
| 605 | Cc1ccc2nc(-c3cccc(S(=O)(=O)N4CCOCC4)c3)cn2c1 |
| 744 | Cc1ccc(Cn2c(CCCC(=O)N3CCN(c4ncccn4)CC3)nc3cccnc32)cc1 |
| 556 | Cc1cc(N2CCN(C)CC2)nc2ccc(NC(=O)NCc3ccc(F)cc3)cc12 |
| 878 | CCn1cnc(S(=O)(=O)N2CCCC(C(=O)Nc3ccc(C(C)C)cc3)C2)c1 (stereo not drawn) |
| 916 | CC(C)c1ccc(-c2cc3c4nn(CC(=O)N5CCCC5)c(=O)n4ccn3n2)cc1 |
| 840 | Cc1ccc(-c2nnc3ccc(SCC(=O)OCc4ccccc4)nn23)cc1 |
| 639 | CCN1CCN(C(=O)CN2c3ccc(F)cc3-c3ccccc3S2(=O)=O)CC1 |
| 1050 | CC(C)CCNC(=O)C1(C)CN(S(=O)(=O)c2ccccc2)CC(=O)N1CCCc1ccccc1 (stereo not drawn) |
| 879 | CCN(CC)S(=O)(=O)c1ccc2c(c1)CC(C(=O)N1CCN(c3ccccc3)CC1)N2C(C)=O (stereo not drawn) |
| 632 | Cc1ccc(S(=O)(=O)N2CCN(CCc3cn(C)c4ncccc34)CC2)cc1 |
| 740 | CS(=O)(=O)Nc1cccc(C2=NN(S(C)(=O)=O)C(c3cccc([N+](=O)[O-])c3)C2)c1 (stereo not drawn) |
| 675 | CN(Cc1ccccc1)c1ncc(C(=O)O)c(-c2ccncc2)n1 |
| 772 | O=C(O)c1ccc(Nc2ncnc3c2cnn3Cc2ccccc2)cc1 |
| 707 | Cn1c(C(=O)NCCCN2CCC(Cc3ccccc3)CC2)cc2c(=O)n(C)c3ccccc3c21 |
| 826 | COC(=O)c1cc(S(=O)(=O)N2CCCC2C(=O)Nc2cccc(C#N)c2)cn1C (stereo not drawn) |
| 837 | COc1ccc(C2(C(=O)NCCC3CCN(C(=O)Nc4ccccc4F)CC3)CC2)cc1 |
| 1150 | Cc1nc(N2CCN(C(c3ccccc3)c3ccccc3)CC2)nc2c1C(=O)CC(c1cccs1)C2 (stereo not drawn) |
| 670 | CCCNC(=O)C1CCCN(c2ccc(SCC(=O)Nc3ccccc3Br)nn2)C1 (stereo not drawn) |
| 723 | O=C1c2ccccc2NC(c2cc(Cl)cc(Cl)c2O)N1CCc1ccccn1 (stereo not drawn) |
